± gives the expanded uncertainty stated by the source.

The series in a line: activity coefficient (dimensionless); of the first substance listed, at infinite dilution; xn = mol fraction of the nth substance listed. To be noted: 101.33 kPa, Liquid, Chromatography, x1 = 0.

For `CCC(C)(C)OC` [2-methoxy-2-methylbutane] + C[N+]1(CCCO)CCOCC1.N#C[N-]C#N, the activity coefficient (308.15 K) turned out to be 97.2 ± 6.7; the activity coefficient (318.15 K) is 90.2 ± 6.2; the activity coefficient (328.15 K) stood at 84.1 ± 5.8; the activity coefficient (338.15 K) turned out to be 78.6 ± 5.4; the activity coefficient (348.15 K) worked out at 74 ± 5.1; the activity coefficient (358.15 K) amounted to 69.9 ± 4.8. For the same compound, the activity coefficient (368.15 K) came to 66 ± 5.
For `CCC[N+](=O)[O-]` [1-nitropropane] + C[n+]1ccn(CCCO)c1.N#CN=C=[N-], the activity coefficient (318.15 K) is 2.69 ± 0.18; the activity coefficient (328.15 K) amounted to 2.79 ± 0.19; the activity coefficient (338.15 K) is 2.89 ± 0.2; the activity coefficient (348.15 K) stood at 2.97 ± 0.2; the activity coefficient (358.15 K) came out at 3.08 ± 0.21; the activity coefficient (368.15 K) was determined as 3.17 ± 0.22.
Regarding `CCCCCCCC` [octane] + C[n+]1ccn(CCCO)c1.N#CN=C=[N-], the activity coefficient turned out to be 881 ± 61 (298.15 K); 779 ± 54 (308.15 K); 698 ± 48 (318.15 K); 626 ± 43 (328.15 K); 560 ± 39 (338.15 K); 509 ± 35 (348.15 K). The activity coefficient (358.15 K) is 465 ± 32.
As to `CCC[N+](=O)[O-]` [1-nitropropane] + C[N+]1(CCCO)CCOCC1.N#C[N-]C#N, the activity coefficient reads like this: (318.15 K) 3.26 ± 0.22; (328.15 K) 3.35 ± 0.23; (338.15 K) 3.47 ± 0.24; (348.15 K) 3.55 ± 0.24; (358.15 K) 3.65 ± 0.25; (368.15 K) 3.74 ± 0.25.
On to `CC(C)(C)O` [2-methylpropan-2-ol] + C[n+]1ccn(CCCO)c1.N#CN=C=[N-], for which the activity coefficient by setting is: (318.15 K) 2.58 ± 0.18; (328.15 K) 2.63 ± 0.18; (338.15 K) 2.68 ± 0.18; (348.15 K) 2.71 ± 0.18; (358.15 K) 2.74 ± 0.19; (368.15 K) 2.79 ± 0.19.
For `COC(C)(C)C` [2-methoxy-2-methylpropane] + C[N+]1(CCCO)CCOCC1.N#C[N-]C#N, the activity coefficient by setting is: (308.15 K) 55.8 ± 3.8; (318.15 K) 52.4 ± 3.6; (328.15 K) 49.7 ± 3.4; (338.15 K) 47.1 ± 3.2; (348.15 K) 45 ± 3.1; (358.15 K) 42.9 ± 2.9. In addition, where the note is “368.15 K”, the activity coefficient turned out to be 41.3 ± 2.8.
As for `CCCCCCCCC` [nonane] + C[n+]1ccn(CCCO)c1.N#CN=C=[N-], the activity coefficient came to 1360 ± 94 (298.15 K); 1200 ± 83 (308.15 K); 1070 ± 74 (318.15 K); 955 ± 66 (328.15 K); 863 ± 59 (338.15 K); 780 ± 54 (348.15 K). The activity coefficient (358.15 K) turned out to be 722 ± 50.
In the case of `CCCC(=O)OC` [methyl butanoate] + C[N+]1(CCCO)CCOCC1.N#C[N-]C#N, the activity coefficient was determined as 15.8 ± 1.1 (318.15 K); 15.9 ± 1.1 (328.15 K); 16.1 ± 1.1 (338.15 K); 16.2 ± 1.1 (348.15 K); 16.3 ± 1.1 (358.15 K); 16.5 ± 1.1 (368.15 K).
Regarding `C=C(C)c1ccccc1` [(1-methylethenyl)benzene] + C[N+]1(CCCO)CCOCC1.N#C[N-]C#N, the activity coefficient runs as follows: (318.15 K) 18.1 ± 1.2; (328.15 K) 18.9 ± 1.3; (338.15 K) 19.5 ± 1.3; (348.15 K) 20.1 ± 1.4; (358.15 K) 20.7 ± 1.4; (368.15 K) 21.3 ± 1.5.
Regarding `CC(C)OC(C)C` [diisopropyl ether] + C[N+]1(CCCO)CCOCC1.N#C[N-]C#N, the activity coefficient by setting is: (298.15 K) 393 ± 27; (308.15 K) 306 ± 21; (318.15 K) 244 ± 17.
In the case of `C=CCCCCCC` [oct-1-ene] + C[N+]1(CCCO)CCOCC1.N#C[N-]C#N, the activity coefficient reads like this: (298.15 K) 1170 ± 81; (308.15 K) 937 ± 65; (318.15 K) 764 ± 53; (328.15 K) 635 ± 44; (338.15 K) 534 ± 37; (348.15 K) 453 ± 31.
Regarding `C1CCOC1` [tetrahydrofuran] + C[N+]1(CCCO)CCOCC1.N#C[N-]C#N, the activity coefficient was 4.57 ± 0.31 (318.15 K); 4.61 ± 0.31 (328.15 K); 4.67 ± 0.32 (338.15 K); 4.72 ± 0.32 (348.15 K); 4.78 ± 0.33 (358.15 K); 4.83 ± 0.33 (368.15 K).
Take `C1=CCCCC1` [cyclohexene] + C[N+]1(CCCO)CCOCC1.N#C[N-]C#N: the activity coefficient reads like this: (298.15 K) 121 ± 8; (308.15 K) 97 ± 6.7; (318.15 K) 79.1 ± 5.4; (328.15 K) 65.3 ± 4.5.
For the compound `CCOCC` [diethyl ether] + C[n+]1ccn(CCCO)c1.N#CN=C=[N-], the activity coefficient (318.15 K) was determined as 20.3 ± 1.4; the activity coefficient (328.15 K) was determined as 20.3 ± 1.4; the activity coefficient (338.15 K) is 20.5 ± 1.4; the activity coefficient (348.15 K) is 20.6 ± 1.4; the activity coefficient (358.15 K) was 20.7 ± 1.4; the activity coefficient (368.15 K) stood at 20.8 ± 1.4.
Consider `C=Cc1ccccc1` [styrene] + C[n+]1ccn(CCCO)c1.N#CN=C=[N-], for which the activity coefficient (318.15 K) worked out at 5.97 ± 0.41; the activity coefficient (328.15 K) is 6.25 ± 0.43; the activity coefficient (338.15 K) amounted to 6.57 ± 0.45; the activity coefficient (348.15 K) was 6.82 ± 0.46; the activity coefficient (358.15 K) worked out at 7.14 ± 0.49; the activity coefficient (368.15 K) stood at 7.39 ± 0.5.
With `CCCCCO` [pentan-1-ol] + C[N+]1(CCCO)CCOCC1.N#C[N-]C#N, the activity coefficient was determined as 7.75 ± 0.53 (318.15 K); 7.49 ± 0.51 (328.15 K); 7.26 ± 0.5 (338.15 K); 7.11 ± 0.48 (348.15 K); 6.88 ± 0.47 (358.15 K); 6.76 ± 0.46 (368.15 K).
In the case of `c1ccsc1` [thiophene] + C[n+]1ccn(CCCO)c1.N#CN=C=[N-], the activity coefficient was found to be 2.44 ± 0.17 (318.15 K); 2.57 ± 0.17 (328.15 K); 2.69 ± 0.18 (338.15 K); 2.82 ± 0.19 (348.15 K); 2.95 ± 0.2 (358.15 K); 3.07 ± 0.21 (368.15 K).
Consider `CC(C)O` [propan-2-ol] + C[n+]1ccn(CCCO)c1.N#CN=C=[N-], for which the activity coefficient worked out at 1.92 ± 0.13 (318.15 K); 1.92 ± 0.13 (328.15 K); 1.92 ± 0.13 (338.15 K); 1.91 ± 0.13 (348.15 K); 1.91 ± 0.13 (358.15 K); 1.92 ± 0.13 (368.15 K).
As to `CCC(=O)OC` [methyl propanoate] + C[N+]1(CCCO)CCOCC1.N#C[N-]C#N, the activity coefficient was found to be 8.18 ± 0.56 (318.15 K); 8.35 ± 0.57 (328.15 K); 8.51 ± 0.58 (338.15 K); 8.7 ± 0.59 (348.15 K); 8.81 ± 0.6 (358.15 K); 9.01 ± 0.61 (368.15 K).
On to `CCC(C)CC` [3-methylpentane] + C[n+]1ccn(CCCO)c1.N#CN=C=[N-], for which the activity coefficient was 327 ± 22 (298.15 K), 284 ± 20 (308.15 K), 249 ± 17 (318.15 K) and 221 ± 15 (328.15 K).
Regarding `Cc1ccccc1C` [1,2-dimethylbenzene] + C[N+]1(CCCO)CCOCC1.N#C[N-]C#N, the activity coefficient reads like this: (318.15 K) 18.2 ± 1.2; (328.15 K) 18.6 ± 1.3; (338.15 K) 18.8 ± 1.3; (348.15 K) 19 ± 1.3; (358.15 K) 19.2 ± 1.3; (368.15 K) 19.5 ± 1.3.
As to `CC(C)CO` [2-methyl-1-propanol] + C[N+]1(CCCO)CCOCC1.N#C[N-]C#N, the activity coefficient amounted to 4.72 ± 0.32 (318.15 K); 4.54 ± 0.31 (328.15 K); 4.38 ± 0.3 (338.15 K); 4.25 ± 0.29 (348.15 K); 4.12 ± 0.28 (358.15 K); 4 ± 0.27 (368.15 K).
Regarding `c1ccncc1` [pyridine] + C[n+]1ccn(CCCO)c1.N#CN=C=[N-], the activity coefficient runs as follows: (318.15 K) 1.33 ± 0.09; (328.15 K) 1.41 ± 0.09; (338.15 K) 1.5 ± 0.1; (348.15 K) 1.58 ± 0.1; (358.15 K) 1.67 ± 0.11; (368.15 K) 1.75 ± 0.12.
For the compound `CCCCCC` [hexane] + C[n+]1ccn(CCCO)c1.N#CN=C=[N-], the activity coefficient was determined as 357 ± 25 (298.15 K); 319 ± 22 (308.15 K); 286 ± 20 (318.15 K); 257 ± 18 (328.15 K); 233 ± 16 (338.15 K).

The values are drawn from the NIST ThermoML archive (doi:10.1016/j.jct.2017.11.017).
